Each structure is given as a SMILES string. Active and inactive are the calls of the source. Some results are limits rather than exact numbers.

What all share (assay type): functional
Assay [1] addresses T1, Sentrin-specific protease 7 (Homo sapiens, UniProt Q9BQF6).
T1 sequence (Q9BQF6 whole entry): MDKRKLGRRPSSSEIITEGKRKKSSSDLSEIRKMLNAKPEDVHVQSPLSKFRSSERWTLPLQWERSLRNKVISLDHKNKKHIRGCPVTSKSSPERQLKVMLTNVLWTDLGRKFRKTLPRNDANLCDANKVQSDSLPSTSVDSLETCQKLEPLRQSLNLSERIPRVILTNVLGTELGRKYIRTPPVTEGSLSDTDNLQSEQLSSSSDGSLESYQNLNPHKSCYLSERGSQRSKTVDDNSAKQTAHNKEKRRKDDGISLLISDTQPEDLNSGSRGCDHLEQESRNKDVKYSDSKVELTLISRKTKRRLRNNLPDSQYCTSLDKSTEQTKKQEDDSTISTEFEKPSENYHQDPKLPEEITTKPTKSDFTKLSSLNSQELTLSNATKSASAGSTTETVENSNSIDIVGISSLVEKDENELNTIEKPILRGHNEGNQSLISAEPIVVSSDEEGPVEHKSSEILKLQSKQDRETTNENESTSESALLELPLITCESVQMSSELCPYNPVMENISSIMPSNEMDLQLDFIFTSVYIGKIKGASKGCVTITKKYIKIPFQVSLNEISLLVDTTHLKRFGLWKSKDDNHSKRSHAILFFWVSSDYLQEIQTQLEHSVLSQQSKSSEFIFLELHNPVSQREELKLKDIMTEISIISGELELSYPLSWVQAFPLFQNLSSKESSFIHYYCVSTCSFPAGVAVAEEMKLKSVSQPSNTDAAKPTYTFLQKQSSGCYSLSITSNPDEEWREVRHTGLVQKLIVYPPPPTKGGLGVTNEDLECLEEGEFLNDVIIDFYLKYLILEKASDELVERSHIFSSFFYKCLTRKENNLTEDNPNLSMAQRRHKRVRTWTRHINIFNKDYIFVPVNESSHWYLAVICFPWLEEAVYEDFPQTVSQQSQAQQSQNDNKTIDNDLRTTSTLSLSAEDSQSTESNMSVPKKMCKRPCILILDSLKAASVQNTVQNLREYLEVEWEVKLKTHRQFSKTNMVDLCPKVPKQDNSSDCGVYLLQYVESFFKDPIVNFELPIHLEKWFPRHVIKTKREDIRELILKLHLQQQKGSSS
The assay can be described thus: inhibition of human SENP7 cleavage activity – biochemical, luminescence, SAR follow-up (AID 504497).

In assay [2] the target is T2, Sentrin-specific protease 6 (Homo sapiens, UniProt Q9GZR1).
T2 sequence (Q9GZR1 whole entry): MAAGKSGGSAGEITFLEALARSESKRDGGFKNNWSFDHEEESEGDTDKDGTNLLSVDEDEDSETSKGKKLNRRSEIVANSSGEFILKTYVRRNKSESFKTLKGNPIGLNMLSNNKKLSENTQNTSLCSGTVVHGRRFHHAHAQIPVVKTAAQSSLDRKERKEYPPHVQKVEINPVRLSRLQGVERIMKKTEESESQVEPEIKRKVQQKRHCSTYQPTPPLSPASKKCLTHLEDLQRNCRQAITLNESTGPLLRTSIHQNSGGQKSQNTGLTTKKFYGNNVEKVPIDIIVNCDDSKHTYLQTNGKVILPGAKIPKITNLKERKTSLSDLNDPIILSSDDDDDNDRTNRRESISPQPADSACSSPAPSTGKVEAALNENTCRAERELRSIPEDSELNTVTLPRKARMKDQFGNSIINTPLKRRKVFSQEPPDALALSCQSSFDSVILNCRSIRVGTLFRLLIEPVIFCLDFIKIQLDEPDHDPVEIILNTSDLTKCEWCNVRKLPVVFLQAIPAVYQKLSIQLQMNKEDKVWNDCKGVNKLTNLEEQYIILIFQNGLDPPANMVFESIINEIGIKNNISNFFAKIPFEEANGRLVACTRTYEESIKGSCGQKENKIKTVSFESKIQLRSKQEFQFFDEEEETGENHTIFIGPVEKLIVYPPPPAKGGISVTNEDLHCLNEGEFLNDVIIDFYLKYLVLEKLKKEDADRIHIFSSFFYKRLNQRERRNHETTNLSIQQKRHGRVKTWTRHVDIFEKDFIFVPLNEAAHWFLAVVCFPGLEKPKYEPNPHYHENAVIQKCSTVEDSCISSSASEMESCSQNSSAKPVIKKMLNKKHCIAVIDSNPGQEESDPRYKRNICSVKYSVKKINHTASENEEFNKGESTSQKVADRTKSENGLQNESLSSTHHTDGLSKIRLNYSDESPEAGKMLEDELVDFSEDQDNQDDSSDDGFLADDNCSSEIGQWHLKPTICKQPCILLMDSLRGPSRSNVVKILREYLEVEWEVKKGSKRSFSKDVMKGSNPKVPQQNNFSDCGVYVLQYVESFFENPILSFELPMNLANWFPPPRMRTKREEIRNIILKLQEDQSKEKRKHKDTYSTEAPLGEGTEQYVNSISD
Kind of assay: SAR Analysis of small molecule inhibitors of Sentrin-specific protease 6 (SENP6) using a Luminescent assay. [Related pubchem assays (depositor defined):AID2582, AID2599].

In a further assay the target is T3, Protein skinhead-1 (Caenorhabditis elegans, UniProt P34707).
T3 sequence (P34707 whole entry): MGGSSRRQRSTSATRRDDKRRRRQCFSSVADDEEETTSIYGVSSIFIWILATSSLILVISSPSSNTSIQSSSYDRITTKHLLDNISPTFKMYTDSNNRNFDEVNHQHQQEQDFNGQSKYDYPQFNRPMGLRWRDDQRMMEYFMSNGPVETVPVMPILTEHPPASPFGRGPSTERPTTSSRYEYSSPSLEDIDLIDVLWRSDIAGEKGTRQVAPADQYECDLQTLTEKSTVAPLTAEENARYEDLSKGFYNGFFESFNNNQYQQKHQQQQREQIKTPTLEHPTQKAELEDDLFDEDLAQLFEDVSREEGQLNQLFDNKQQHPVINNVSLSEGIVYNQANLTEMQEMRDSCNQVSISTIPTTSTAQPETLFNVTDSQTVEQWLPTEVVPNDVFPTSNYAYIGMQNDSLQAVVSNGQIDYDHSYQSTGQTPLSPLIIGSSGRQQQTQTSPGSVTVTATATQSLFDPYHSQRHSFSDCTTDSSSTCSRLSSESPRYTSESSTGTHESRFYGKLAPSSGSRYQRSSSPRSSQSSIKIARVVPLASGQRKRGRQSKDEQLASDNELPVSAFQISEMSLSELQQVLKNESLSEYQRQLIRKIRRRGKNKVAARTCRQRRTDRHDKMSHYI

In the next assay the target is T4, Caspase-3 (Homo sapiens, UniProt P42574).
T4 sequence (P42574 whole entry): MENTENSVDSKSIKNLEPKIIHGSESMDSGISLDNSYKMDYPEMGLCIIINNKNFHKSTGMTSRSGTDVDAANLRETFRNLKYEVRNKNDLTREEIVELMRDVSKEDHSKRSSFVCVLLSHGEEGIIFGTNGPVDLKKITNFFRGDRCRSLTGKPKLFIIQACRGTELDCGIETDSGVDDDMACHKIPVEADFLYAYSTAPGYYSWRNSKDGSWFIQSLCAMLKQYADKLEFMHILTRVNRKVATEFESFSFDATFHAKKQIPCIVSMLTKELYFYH
The assay can be described thus: SAR Analysis of small molecule inhibitors of Sentrin-specific proteases (SENPs) using a Caspase-3 Selectivity assay. [Related pubchem assays (depositor defined):AID2540, AID2599, AID434973, AID489001].

The target in assay [3] is T5, Sentrin-specific protease 8 (Homo sapiens, UniProt Q96LD8).
T5 sequence (Q96LD8 whole entry): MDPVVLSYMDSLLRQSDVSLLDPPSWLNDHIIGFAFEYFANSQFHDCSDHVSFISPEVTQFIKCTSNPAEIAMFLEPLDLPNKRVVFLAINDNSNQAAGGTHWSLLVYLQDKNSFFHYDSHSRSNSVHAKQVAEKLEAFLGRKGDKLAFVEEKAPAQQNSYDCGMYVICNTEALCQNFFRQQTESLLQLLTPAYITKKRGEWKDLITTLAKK
Kind of assay: inhibition of human SENP8 cleavage activity – biochemical, luminescence, SAR follow-up (AID 504501).

The test system of another assay is CHO-K1. Kind of assay: Counterscreen for antagonists of the orexin 1 receptor (OX1R; HCRTR1): Homogeneous time resolved fluorescence (HTRF)-based cell-based dose response assay to identify antagonists of the parental CHO-K1 cell line. [Related pubchem assays (depositor defined):AID434989, AID435008, AID463079, AID485270, AID492963, AID492964, AID492965, AID493232, AID504699, AID504701]. To be noted: Cricetulus griseus.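 Also: potency for inhibition of ATP-stimulated IP1 production as antagonists.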

Assay [4] addresses T6, Orexin receptor type 2 (Homo sapiens, UniProt O43614).
T6 sequence (O43614 whole entry): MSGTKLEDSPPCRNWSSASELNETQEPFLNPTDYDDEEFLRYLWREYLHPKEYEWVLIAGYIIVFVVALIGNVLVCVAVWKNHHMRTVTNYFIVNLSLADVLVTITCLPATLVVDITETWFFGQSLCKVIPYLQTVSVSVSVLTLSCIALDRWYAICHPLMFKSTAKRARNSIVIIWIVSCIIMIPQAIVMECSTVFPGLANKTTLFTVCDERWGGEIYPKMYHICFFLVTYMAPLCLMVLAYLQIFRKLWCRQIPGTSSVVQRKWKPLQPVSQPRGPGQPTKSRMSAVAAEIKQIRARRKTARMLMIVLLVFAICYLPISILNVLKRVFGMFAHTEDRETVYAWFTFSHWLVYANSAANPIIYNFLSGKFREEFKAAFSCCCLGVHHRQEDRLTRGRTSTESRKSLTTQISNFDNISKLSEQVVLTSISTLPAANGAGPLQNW
The assay can be described thus: Counterscreen assay for antagonists of the orexin 1 receptor (OX1R; HCRTR1): Fluorescence-based cell-based dose response assay for antagonists of the orexin 2 receptor (OX2R; HCRTR2), run by assay provider. Background: A counterscreen serves to expose hits that act by an unwanted route or on another target.

Assay [5] concerns the target T6, Orexin receptor type 2. The assay can be described thus: Counterscreen assay for antagonists of the orexin 1 receptor (OX1R; HCRTR1): Homogeneous Time Resolved Fluorescence (HTRF)-based cell-based dose response assay for antagonists of the orexin 2 receptor (OX2R; HCRTR2), run by assay provider.
Assay [6] addresses T7, Orexin/Hypocretin receptor type 1 (Homo sapiens, UniProt O43613).
T7 sequence (O43613 whole entry): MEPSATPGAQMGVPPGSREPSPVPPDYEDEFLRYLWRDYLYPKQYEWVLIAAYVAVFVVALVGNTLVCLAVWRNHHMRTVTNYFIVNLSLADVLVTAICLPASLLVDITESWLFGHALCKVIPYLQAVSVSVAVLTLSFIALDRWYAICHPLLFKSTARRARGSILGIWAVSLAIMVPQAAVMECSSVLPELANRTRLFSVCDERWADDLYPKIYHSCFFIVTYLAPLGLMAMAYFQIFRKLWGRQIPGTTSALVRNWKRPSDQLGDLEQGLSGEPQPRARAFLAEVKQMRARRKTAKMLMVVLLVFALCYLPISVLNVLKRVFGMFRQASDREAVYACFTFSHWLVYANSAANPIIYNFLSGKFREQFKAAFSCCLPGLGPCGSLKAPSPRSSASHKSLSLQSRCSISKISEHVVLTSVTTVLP
Kind of assay: Homogeneous Time Resolved Fluorescence (HTRF)-based cell-based high throughput dose response assay for antagonists of the orexin 1 receptor (OX1R; HCRTR1). [Related pubchem assays (depositor defined):AID434989, AID435008, AID463079, AID485270, AID492963, AID492964, AID492965, AID493232, AID504717, AID504718]. Background: In TR-FRET formats the signal depends on donor and acceptor labels being close together.

The target in assay [7] is T7, Orexin/Hypocretin receptor type 1. Kind of assay: Fluorescence-based cell-based high throughput dose response assay for antagonists of the orexin 1 receptor (OX1R; HCRTR1). [Related pubchem assays (depositor defined):AID434989, AID435008, AID463079, AID485270, AID492963, AID492964, AID492965, AID493232, AID504717, AID504718].
A short description of assay [8]: Counterscreen for antagonists of the orexin 1 receptor (OX1R; HCRTR1): Fluorescence-based cell-based high throughput dose response assay to identify antagonists of the parental CHO cell line. [Related pubchem assays (depositor defined):AID434989, AID435008, AID463079, AID485270, AID492963, AID492964, AID492965, AID493232, AID504699, AID504701].

Broadly, the IC50 is the concentration that gives 50% inhibition. Consider `Fc1ccc(/C=C/c2nnc(-c3cccs3)o2)cc1`, for which the 50% inhibitory concentration (IC50) in assay [1] was 4.3 µM (active); in assay [2] it was 39 µM (active); on Protein skinhead-1, > 100 µM (inactive); on Caspase-3, 6.4 µM (active); in assay [3] it was 47 µM (active).
As for `COc1ccc(NC(=O)C(=O)Nc2cccc3cccnc23)cc1OC`, the IC50 in the assay on CHO-K1 was > 66.2 µM (inactive); on Orexin receptor type 2 [4], > 88.8 µM (inactive); at Orexin receptor type 2 [5] it was > 50 µM (inactive); in assay [6], 0.475 µM (active); in assay [7] it was 1.34 µM (active); in [8], > 49.8 µM (inactive).
In the case of `C/C(=C\c1ccccc1)c1nc(-c2cccc(C(F)(F)F)c2)no1`, the IC50 (in assay [1]; in [2]; at Caspase-3; in assay [3]) was > 99 µM (inactive) in each case.
With `O=C(Nc1nc2c(Br)cccc2s1)c1ccc2c(c1)OCCO2`, the 50% inhibitory concentration (IC50) in assay [1] is 2.6 µM (active); in assay [2], 4.5 µM (active); at Caspase-3 it was 13 µM (active); in assay [3], 5.3 µM (active).

Source of the values: ChEMBL document CHEMBL1201862, “PubChem BioAssay data set” (2004).
